Results from ChEMBL document CHEMBL1201862, “PubChem BioAssay data set” (2004).
The source made the active and inactive calls.

What was measured:
[1] = target: Testis-specific serine/threonine-protein kinase 2 (Homo sapiens, UniProt Q96PF2); format: functional;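 further: part of the Navigating the Kinome panel, target entry STK22B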
[2] = target: MAP kinase-interacting serine/threonine-protein kinase 2 (Homo sapiens, UniProt Q9HBH9); format: functional
[3] = target: Mitogen-activated protein kinase 12 (Homo sapiens, UniProt P53778); format: functional;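 further: measured as one member of a kinome-wide kinase profiling panel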
Mitogen-activated protein kinase 12, sequence (P53778 whole entry): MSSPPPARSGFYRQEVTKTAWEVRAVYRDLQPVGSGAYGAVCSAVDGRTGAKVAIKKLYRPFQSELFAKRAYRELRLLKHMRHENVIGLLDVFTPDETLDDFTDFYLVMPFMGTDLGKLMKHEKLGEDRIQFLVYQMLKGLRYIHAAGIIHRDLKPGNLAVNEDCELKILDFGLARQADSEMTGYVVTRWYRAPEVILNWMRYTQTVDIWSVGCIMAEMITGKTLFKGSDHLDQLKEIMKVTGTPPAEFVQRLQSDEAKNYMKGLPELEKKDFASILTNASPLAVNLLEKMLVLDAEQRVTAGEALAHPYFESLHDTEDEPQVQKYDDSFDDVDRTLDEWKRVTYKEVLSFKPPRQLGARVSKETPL

Exodeoxyribonuclease V = target: T1, Exodeoxyribonuclease V (Escherichia coli (strain K12), UniProt P04993+P07648+P08394); assay: E. coli RecBCD inhibitors, dose response, counter-screen for AddAB inhibitor project, absorbance, V66 E. coli, mutant T4 phage (AID 492957); format: functional, cell-based, Escherichia coli str. K-12 substr. MG1655
T1 sequence (P04993 whole entry): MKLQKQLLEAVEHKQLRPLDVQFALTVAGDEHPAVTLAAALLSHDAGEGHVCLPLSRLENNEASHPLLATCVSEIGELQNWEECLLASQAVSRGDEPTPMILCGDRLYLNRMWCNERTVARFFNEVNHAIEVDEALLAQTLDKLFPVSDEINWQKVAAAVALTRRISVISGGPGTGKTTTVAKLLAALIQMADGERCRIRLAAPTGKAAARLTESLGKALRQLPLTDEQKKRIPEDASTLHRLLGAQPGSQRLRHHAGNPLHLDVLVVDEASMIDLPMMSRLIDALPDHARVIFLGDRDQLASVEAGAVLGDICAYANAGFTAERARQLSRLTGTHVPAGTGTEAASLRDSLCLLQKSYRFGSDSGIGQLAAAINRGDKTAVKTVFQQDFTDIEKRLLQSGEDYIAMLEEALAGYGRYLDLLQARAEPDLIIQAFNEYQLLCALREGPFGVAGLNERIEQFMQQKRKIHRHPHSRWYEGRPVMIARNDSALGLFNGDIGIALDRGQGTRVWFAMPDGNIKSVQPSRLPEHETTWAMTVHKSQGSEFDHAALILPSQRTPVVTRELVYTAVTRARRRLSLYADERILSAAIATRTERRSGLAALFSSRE
T1 sequence (P07648 whole entry): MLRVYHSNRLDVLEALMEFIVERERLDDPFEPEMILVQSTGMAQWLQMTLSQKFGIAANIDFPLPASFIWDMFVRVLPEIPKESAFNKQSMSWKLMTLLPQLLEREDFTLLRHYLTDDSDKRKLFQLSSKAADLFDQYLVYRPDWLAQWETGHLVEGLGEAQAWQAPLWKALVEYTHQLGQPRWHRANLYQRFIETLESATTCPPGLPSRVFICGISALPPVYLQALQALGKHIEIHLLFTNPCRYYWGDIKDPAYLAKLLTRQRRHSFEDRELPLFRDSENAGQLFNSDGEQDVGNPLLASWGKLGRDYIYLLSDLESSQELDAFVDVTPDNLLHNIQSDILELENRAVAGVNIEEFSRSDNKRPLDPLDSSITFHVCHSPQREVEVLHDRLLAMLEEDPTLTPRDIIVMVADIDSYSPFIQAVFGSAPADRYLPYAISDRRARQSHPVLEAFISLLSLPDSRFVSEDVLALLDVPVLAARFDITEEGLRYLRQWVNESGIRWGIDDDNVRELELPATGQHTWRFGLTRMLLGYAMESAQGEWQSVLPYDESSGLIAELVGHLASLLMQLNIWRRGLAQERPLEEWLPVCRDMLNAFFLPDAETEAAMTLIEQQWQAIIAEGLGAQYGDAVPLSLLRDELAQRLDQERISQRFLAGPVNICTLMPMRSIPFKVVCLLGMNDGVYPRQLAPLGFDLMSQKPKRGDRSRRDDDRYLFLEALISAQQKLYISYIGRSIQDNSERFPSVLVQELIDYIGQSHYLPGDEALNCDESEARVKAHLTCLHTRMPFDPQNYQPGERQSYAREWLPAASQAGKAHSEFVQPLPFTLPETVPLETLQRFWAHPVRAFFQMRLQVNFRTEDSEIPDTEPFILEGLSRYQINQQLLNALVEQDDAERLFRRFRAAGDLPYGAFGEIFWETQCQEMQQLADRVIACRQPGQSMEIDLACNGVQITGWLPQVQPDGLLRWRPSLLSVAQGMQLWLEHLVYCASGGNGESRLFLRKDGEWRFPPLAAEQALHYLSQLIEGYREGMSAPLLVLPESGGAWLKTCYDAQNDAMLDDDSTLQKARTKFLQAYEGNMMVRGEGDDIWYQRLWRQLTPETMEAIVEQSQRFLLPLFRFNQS
T1 sequence (P08394 whole entry): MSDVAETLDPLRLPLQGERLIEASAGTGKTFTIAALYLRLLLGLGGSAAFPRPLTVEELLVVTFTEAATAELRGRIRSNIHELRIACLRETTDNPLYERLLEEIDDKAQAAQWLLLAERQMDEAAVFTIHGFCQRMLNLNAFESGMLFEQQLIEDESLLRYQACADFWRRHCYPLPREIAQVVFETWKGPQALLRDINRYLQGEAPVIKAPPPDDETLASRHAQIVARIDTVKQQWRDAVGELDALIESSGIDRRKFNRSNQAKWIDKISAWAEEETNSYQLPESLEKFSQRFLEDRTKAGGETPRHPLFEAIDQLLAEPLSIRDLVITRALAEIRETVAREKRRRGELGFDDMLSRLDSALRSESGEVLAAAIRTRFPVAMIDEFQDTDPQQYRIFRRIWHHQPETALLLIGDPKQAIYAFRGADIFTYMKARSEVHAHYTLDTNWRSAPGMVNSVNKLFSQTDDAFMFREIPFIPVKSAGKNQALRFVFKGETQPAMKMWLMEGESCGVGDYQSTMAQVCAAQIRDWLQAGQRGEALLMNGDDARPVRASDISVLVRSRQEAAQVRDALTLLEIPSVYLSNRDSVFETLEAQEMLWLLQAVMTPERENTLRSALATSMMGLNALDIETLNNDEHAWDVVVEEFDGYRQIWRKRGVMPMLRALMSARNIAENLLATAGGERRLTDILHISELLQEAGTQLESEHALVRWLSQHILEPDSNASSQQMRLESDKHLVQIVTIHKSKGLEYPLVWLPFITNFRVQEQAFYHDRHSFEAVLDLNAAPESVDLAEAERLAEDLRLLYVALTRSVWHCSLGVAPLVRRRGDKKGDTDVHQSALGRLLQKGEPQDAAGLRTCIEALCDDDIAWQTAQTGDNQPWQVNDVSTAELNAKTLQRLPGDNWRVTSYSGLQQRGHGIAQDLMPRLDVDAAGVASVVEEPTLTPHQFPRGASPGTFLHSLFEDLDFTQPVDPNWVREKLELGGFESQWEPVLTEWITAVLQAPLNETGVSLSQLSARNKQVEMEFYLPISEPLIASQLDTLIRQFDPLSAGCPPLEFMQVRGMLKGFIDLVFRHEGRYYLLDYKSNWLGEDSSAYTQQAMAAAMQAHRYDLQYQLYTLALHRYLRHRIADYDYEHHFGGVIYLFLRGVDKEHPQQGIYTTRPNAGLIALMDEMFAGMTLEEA

[4] = target: Heat shock protein HSP 90-alpha (Homo sapiens, UniProt P07900); format: functional, organism-based

MAP kinase-interacting serine/threonine-protein kinase 2, sequence (Q9HBH9 whole entry): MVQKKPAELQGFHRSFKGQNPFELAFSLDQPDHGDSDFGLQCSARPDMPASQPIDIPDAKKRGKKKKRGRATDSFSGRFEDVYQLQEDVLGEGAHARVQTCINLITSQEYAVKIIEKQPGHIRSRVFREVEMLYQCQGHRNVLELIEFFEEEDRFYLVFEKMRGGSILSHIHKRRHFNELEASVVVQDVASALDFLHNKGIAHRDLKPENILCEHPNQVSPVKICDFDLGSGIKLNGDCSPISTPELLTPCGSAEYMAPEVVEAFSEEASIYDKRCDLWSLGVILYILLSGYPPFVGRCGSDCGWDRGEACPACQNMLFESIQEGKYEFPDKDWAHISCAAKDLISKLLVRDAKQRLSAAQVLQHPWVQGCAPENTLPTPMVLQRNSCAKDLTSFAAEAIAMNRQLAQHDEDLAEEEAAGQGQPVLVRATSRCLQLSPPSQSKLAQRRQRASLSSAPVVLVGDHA
Testis-specific serine/threonine-protein kinase 2, sequence (Q96PF2 whole entry): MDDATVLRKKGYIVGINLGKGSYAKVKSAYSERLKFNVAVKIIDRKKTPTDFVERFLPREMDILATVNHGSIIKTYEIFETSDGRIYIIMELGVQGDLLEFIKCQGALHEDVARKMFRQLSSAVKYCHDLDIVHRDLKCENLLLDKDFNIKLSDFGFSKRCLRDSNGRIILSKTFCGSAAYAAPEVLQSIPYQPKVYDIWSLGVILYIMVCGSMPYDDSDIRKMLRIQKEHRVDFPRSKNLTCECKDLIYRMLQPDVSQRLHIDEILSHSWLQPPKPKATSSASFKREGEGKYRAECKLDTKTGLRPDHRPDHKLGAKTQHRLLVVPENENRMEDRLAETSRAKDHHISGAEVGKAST

In the case of `CS(=O)(=O)N(Cc1ccc2[nH]c(=O)c3cccn3c2c1)C1CC1`, the Ki [1] is reported as 39.8 nM (active), the Ki [2] is reported as 794 nM (active) and the Ki [3] is reported as 316 nM (active).

With `Cc1cc(NC(c2ccc(Cl)cc2)c2ccc3cccnc3c2O)no1` (stereo not given) the IC50 (Exodeoxyribonuclease V) was > 119000 nM (inactive) and the AC50 [4] was 3870 nM (active).
